From article PMC6013247, “Preclinical characterization of INCB053914, a novel pan-PIM kinase inhibitor, alone and in combination with anticancer agents, in models of hematologic malignancies” (PLoS ONE, 2018)

Columns and labels:
[1] = test system: PIM2 expression in KG-1a, Pfeiffer and KMS-12-PE cells; assay: Western blot of PIM2 expression in cell lines; format: cell-based; details: KG-1a (AML)
MSSK1 = MSSK1 (Homo sapiens, UniProt Q9UPE1); assay: Kinase selectivity panel; format: biochemical; details: [ATP] = 1 mM
Chain of MSSK1 (Q9UPE1 whole entry): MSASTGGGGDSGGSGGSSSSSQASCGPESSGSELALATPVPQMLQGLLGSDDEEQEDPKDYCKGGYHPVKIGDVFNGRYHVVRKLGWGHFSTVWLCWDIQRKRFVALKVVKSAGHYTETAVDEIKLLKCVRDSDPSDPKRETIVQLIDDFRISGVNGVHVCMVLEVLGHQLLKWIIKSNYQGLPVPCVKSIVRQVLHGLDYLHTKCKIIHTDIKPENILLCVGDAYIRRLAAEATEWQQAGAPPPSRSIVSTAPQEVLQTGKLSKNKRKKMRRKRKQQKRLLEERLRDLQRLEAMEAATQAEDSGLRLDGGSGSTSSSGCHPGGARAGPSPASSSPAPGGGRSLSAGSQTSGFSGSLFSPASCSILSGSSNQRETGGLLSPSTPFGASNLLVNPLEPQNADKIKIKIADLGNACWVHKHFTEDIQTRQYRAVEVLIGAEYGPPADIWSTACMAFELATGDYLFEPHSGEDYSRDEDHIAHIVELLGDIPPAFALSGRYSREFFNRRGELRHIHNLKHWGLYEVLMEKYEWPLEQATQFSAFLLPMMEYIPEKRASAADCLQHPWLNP

[2] = test system: panel of more than 50 kinases; details: except for RSK2
Procedure: S1 Table. Selectivity of INCB053914 for PIM kinases compared with 56 kinases representative of the kinome [ATP] = 1 mM.

RPS6KB1 = RPS6KB1 (Homo sapiens, UniProt P23443); assay: Kinase selectivity panel; format: biochemical; details: [ATP] = 1 mM
Chain of RPS6KB1 (P23443 whole entry): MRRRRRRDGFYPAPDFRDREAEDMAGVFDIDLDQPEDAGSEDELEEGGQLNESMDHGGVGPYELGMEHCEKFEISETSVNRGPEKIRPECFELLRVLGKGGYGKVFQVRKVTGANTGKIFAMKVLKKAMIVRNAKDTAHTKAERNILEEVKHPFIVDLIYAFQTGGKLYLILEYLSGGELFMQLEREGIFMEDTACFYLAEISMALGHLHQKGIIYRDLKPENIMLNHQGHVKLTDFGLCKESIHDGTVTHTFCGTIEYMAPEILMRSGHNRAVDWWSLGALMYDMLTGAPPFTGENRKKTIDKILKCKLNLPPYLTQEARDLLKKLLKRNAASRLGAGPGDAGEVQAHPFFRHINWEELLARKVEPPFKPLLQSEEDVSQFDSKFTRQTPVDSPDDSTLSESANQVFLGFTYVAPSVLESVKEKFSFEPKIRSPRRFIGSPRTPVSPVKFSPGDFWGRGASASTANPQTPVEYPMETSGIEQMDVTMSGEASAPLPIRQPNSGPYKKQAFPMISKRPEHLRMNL

Mino = assay: Cell proliferation assay ([3H]-thymidine); format: cell-based; details: Homo sapiens; Mino (MCL); read-out: Mean (± SD) GI50
Procedure: (§1) The antiproliferative effects of INCB053914 on hematologic tumor cells were investigated using assays described in the Supporting Information (S2 File).
(§2) Cell proliferation assays. […] After 3 to 4 days, [^3H]-thymidine (1 μCi/well) (PerkinElmer) in PBS (10 μl) was added to the cell culture for an additional 12 hours. The incorporated radioactivity was separated by filtration with water through GF/B filters (Packard Bioscience, Meriden, Connecticut) and measured by liquid scintillation counting with a TopCount (Packard Bioscience).

KMS-28-BM = assay: Cell proliferation assay ([3H]-thymidine); format: cell-based; details: KMS-28-BM (MM)
Procedure: as §1, §2

MOLM-13 = assay: Cell proliferation assay ([3H]-thymidine); format: cell-based; details: Homo sapiens; MOLM-13 (AML); read-out: Mean (± SD) GI50
Procedure: as §1, §2

KMS-34 = assay: Cell proliferation assay ([3H]-thymidine); format: cell-based; details: KMS-34 (MM)
Procedure: as §1, §2

RPMI8226 = assay: Cell proliferation assay ([3H]-thymidine); format: cell-based; details: RPMI8226 (MM)
Procedure: as §1, §2

KMS-12-BM = assay: Cell proliferation assay ([3H]-thymidine); format: cell-based; details: Homo sapiens; KMS-12-BM (MM); read-out: Mean (± SD) GI50
Procedure: as §1, §2

NOMO1 = assay: Cell proliferation assay ([3H]-thymidine); format: cell-based; details: NOMO1 (AML)
Procedure: as §1, §2

MOLP-8 = assay: Cell proliferation assay ([3H]-thymidine); format: cell-based; details: MOLP-8 (MM)
Procedure: as §1, §2

THP-1 = assay: Cell proliferation assay ([3H]-thymidine); format: cell-based; details: THP-1 (AML)
Procedure: as §1, §2

Jurkat = assay: Cell proliferation assay ([3H]-thymidine); format: cell-based; details: Jurkat (T-ALL)
Procedure: as §1, §2

OPM-2 = assay: Cell proliferation assay ([3H]-thymidine); format: cell-based; details: OPM-2 (MM)
Procedure: as §1, §2

JM-1 = assay: Cell proliferation assay ([3H]-thymidine); format: cell-based; details: JM-1 (T-ALL)
Procedure: as §1, §2

KARPASS-422 = assay: Cell proliferation assay ([3H]-thymidine); format: cell-based; details: read-out: Mean (± SD) GI50
Procedure: as §1, §2

PLK3 = PLK3 (Homo sapiens, UniProt Q9H4B4); assay: Kinase selectivity panel; format: biochemical; details: [ATP] = 1 mM
Chain of PLK3 (Q9H4B4 whole entry): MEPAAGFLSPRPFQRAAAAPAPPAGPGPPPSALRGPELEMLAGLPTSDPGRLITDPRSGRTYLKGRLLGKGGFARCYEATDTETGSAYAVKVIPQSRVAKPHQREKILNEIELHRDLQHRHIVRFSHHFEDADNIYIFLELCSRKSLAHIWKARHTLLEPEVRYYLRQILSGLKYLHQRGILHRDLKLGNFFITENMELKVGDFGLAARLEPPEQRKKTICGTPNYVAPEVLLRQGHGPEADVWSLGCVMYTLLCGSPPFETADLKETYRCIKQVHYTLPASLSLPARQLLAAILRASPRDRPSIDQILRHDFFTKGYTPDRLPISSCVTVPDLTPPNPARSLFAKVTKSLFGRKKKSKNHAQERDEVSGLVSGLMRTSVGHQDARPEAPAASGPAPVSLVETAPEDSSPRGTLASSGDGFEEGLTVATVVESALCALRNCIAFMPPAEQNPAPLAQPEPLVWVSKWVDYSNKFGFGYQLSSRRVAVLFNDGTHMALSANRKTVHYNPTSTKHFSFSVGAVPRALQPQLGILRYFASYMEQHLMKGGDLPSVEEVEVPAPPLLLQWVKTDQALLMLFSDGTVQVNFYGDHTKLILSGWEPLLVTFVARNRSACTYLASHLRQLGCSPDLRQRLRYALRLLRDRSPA

DDR2 = DDR2 (Homo sapiens, UniProt Q16832); assay: Kinase selectivity panel; format: biochemical; details: [ATP] = 1 mM
Chain of DDR2 (Q16832 22-855): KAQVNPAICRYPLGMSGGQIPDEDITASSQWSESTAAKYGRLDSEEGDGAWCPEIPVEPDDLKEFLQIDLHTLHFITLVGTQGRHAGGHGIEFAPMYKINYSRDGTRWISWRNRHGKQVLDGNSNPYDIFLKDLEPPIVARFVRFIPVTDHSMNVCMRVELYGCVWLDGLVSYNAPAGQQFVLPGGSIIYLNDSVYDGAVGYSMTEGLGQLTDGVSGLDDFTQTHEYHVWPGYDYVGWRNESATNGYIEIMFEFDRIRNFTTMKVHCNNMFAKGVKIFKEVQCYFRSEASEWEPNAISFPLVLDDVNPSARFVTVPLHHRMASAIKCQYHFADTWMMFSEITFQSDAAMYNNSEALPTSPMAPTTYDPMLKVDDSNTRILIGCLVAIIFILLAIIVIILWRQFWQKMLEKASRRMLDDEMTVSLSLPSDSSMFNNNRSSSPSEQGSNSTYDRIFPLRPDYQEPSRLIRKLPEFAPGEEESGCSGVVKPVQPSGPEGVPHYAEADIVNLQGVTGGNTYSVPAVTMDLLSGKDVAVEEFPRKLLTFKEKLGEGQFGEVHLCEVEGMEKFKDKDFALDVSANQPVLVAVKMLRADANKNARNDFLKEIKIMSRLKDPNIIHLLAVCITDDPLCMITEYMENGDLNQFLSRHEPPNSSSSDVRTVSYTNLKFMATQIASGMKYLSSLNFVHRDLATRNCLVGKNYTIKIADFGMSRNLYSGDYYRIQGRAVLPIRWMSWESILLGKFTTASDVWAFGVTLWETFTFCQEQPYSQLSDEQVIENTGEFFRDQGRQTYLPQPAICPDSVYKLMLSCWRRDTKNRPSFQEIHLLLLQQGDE

AKT1 = AKT1 (Homo sapiens, UniProt P31749); assay: Kinase selectivity panel; format: biochemical; details: [ATP] = 1 mM
Chain of AKT1 (P31749 whole entry): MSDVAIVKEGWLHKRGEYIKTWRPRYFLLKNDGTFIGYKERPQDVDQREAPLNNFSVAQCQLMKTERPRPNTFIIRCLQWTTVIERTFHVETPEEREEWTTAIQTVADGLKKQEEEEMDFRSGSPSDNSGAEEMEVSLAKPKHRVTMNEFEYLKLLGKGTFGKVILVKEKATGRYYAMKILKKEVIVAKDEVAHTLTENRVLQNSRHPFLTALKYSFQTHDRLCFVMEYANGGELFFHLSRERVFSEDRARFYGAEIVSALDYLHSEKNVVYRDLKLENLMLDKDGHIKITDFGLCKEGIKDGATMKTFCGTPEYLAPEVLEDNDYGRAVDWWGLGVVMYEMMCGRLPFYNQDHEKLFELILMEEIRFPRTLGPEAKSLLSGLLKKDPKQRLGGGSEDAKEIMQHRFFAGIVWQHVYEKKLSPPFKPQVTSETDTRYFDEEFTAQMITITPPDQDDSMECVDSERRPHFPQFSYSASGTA

PIM2 expression in PBMCs = PIM2 expression in PBMCs from whole blood of patients with AML treated ex vivo; format: cell-based; details: Homo sapiens, PBMC, read-out: EC50 for increased PIM2 expression, whole blood treated overnight ex vivo
Procedure: The effects of INCB053914 on pBAD, pp70S6K, and p4E-BP1 levels and on the expression of PIM isozymes also were assessed ex vivo in primary bone marrow blasts (Stem Cell and Xenograft Core, University of Pennsylvania, Philadelphia, Pennsylvania) or in peripheral blood mononuclear cells (PBMCs) derived from whole blood samples obtained with informed written consent from adult patients with AML enrolled in an ongoing phase 1/2 dose-escalation trial, which was conducted in accordance with the study protocol approved by the respective institutional review boards or independent ethics committees. Only samples initially containing >90% viable cells were used (assessed by Trypan Blue staining). Immediately after thawing, the blasts were cultured in RPMI + 10% FBS with INCB053914 for 2 hours at 37°C, before lysis. For determinations of PIM2 expression in PBMCs, whole blood samples were treated overnight with increasing concentrations of INCB053914; total PBMCs were isolated by Ficoll-Paque density gradient centrifugation before lysis. The levels of PIM isozymes and phosphoproteins in cell lysates were detected by Western blotting using the same primary antibodies as above.

DYRK2 = DYRK2 (Homo sapiens, UniProt Q92630); assay: Kinase selectivity panel; format: biochemical; details: [ATP] = 1 mM
Chain of DYRK2 (Q92630 whole entry): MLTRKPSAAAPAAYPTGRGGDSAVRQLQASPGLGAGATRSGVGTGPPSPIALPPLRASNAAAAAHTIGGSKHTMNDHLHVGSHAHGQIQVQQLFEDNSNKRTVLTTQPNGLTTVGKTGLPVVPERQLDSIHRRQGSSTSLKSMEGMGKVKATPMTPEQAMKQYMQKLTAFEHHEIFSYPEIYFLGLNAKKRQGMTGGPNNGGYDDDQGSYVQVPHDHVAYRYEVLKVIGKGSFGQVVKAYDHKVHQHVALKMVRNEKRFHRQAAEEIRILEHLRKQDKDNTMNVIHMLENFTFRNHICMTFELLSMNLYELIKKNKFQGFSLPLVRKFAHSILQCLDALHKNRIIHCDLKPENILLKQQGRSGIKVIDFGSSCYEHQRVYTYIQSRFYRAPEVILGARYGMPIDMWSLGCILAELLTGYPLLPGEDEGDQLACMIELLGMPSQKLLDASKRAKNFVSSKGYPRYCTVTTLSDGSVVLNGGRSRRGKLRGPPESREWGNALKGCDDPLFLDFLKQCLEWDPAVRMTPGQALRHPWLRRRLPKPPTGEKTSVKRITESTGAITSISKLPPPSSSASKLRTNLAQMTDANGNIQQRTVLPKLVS

Pfeiffer DLBCL cells = assay: In vitro proliferation of Pfeiffer DLBCL cells, single agents and combination; format: cell-based
Procedure: Synergistic effects of INCB053914 in combination with INCB050465, cytarabine, or itacitinib, were assessed based on the Bliss independence model. In this model, the expected additive effect, with the assumption that concentration dependent effects of 2 drugs (A and B) are independent, is given by the equation EIND = EA + EB – EA •EB, where 0 ≤ EIND ≤ 1; EA and EB are the magnitudes of effects of A and B alone at given concentrations.
The interaction between effects of A and B can be described by the equation Combination Index = EIND/ EOBS, where EOBS is the observed combined effect of A + B expressed as a probability (0 ≤ EOBS ≤ 1). If the point estimate of Combination Index and its upper 97.5% confidence limit are <1 then the combined effect is synergistic; if the 2-sided 95% confidence intervals (CI) encompass 1 then the combined effect is additive (ie, independent); if the point estimate of Combination Index and the lower 2.5% confidence limit are >1 then the combined effect of A + B are antagonistic.

[3] = Homo sapiens, read-out: Mean (± SD) GI50

With `C[C@H]1CN(c2c(NC(=O)c3ccc(F)c(-c4c(F)cccc4F)n3)cnc3c2CC[C@H]3O)C[C@@H](N)[C@@H]1O.O=P(O)(O)O` [INCB053914, N-((R)-4-((3R,4R,5S)-3-amino-4-hydroxy-5-methylpiperidin-1-yl)-7-hydroxy-6,7-dihydro-5H-cyclopenta[b]pyridin-3-yl)-6-(2,6-difluorophenyl)-5-fluoropicolinamide phosphate] the PIM2 expression [1] was “increased PIM2 expression”, the IC50 (MSSK1) was > 20000 nM and the “selectivity against a panel of more than 50 kinases” value [2] was > 475 fold. The IC50 (RPS6KB1) was > 20000 nM, the GI50 (Mino) was > 3000 nM and the “Mean (SD) maximum inhibition” value (KMS-28-BM) was 86.0 ± 3.7%. The GI50 (KMS-28-BM; read-out: Mean (± SD) GI50) was 36.7 ± 9.9 nM, the GI50 (MOLM-13) was > 3000 nM and the “Mean (SD) maximum inhibition” value (KMS-34) was 98.8 ± 0.5%. The GI50 (KMS-34; read-out: Mean (± SD) GI50) was 87.1 ± 28 nM, the GI50 (RPMI8226; Homo sapiens, RPMI-8226, read-out: Mean (± SD) GI50) was 230 ± 132 nM and the “Mean (SD) maximum inhibition” value (RPMI8226) was 96.8 ± 2.2%. The GI50 (KMS-12-BM) was 34.2 ± 19.9 nM, the GI50 (NOMO1; Homo sapiens, NOMO-1, read-out: Mean (± SD) GI50) was 35.9 ± 9.3 nM and the “Mean (SD) maximum inhibition” value (NOMO1) was 84.6 ± 4.0%. The GI50 (MOLP-8; [3]) was 13.2 ± 7.7 nM, the “Mean (SD) maximum inhibition” value (MOLP-8) was 93.3 ± 1.7% and the GI50 (THP-1; [3]) was 2050 nM. The “Mean (SD) maximum inhibition” value (THP-1) was 76.3 ± 22.3%, the GI50 (Jurkat; [3]) was 931 ± 800 nM and the “Mean (SD) maximum inhibition” value (Jurkat) was 66.0 ± 7.0%. The GI50 (OPM-2; [3]) was 123 ± 4.9 nM, the “Mean (SD) maximum inhibition” value (OPM-2) was 87.5 ± 8.0% and the GI50 (JM-1; Homo sapiens, JM1, read-out: Mean (± SD) GI50) was 19.5 ± 15.1 nM. For the same molecule, the “Mean (SD) maximum inhibition” value (JM-1) was 94.3 ± 4.9%, the GI50 (KARPASS-422) was > 3000 nM and the IC50 (PLK3) was > 20000 nM. For the same molecule, the IC50 (DDR2) was > 20000 nM, the IC50 (AKT1) was > 20000 nM and the EC50 (PIM2 expression in PBMCs) was 116 nM. For the same molecule, the IC50 (DYRK2) was > 20000 nM and the “proliferation of Pfeiffer cells, single agent” value (Pfeiffer DLBCL cells) was “inhibited”.
